Source: BigSolDB 2.1

SMILES: CC(=O)S[C@@H]1CC2=CC(=O)CC[C@]2(C)[C@H]2CC[C@@]3(C)[C@@H](CC[C@@]34CCC(=O)O4)[C@H]12
- solubility (mole fraction) (in ethanol, 278.75 K): 0.0017
- solubility (mole fraction) (in ethanol, 283.55 K): 0.00197
- solubility (mole fraction) (in ethanol, 288.45 K): 0.00238
- solubility (mole fraction) (in ethanol, 293.45 K): 0.0031
- solubility (mole fraction) (in ethanol, 298.35 K): 0.00394
- solubility (mole fraction) (in ethanol, 303.15 K): 0.00491
- solubility (mole fraction) (in ethanol, 308.25 K): 0.00606
- solubility (mole fraction) (in ethanol, 313.15 K): 0.00771
- solubility (mole fraction) (in ethanol, 317.95 K): 0.00975
- solubility (mole fraction) (in ethyl acetate, 278.85 K): 0.0179
- solubility (mole fraction) (in ethyl acetate, 283.65 K): 0.0198
- solubility (mole fraction) (in ethyl acetate, 288.55 K): 0.0226
- solubility (mole fraction) (in ethyl acetate, 293.45 K): 0.0246
- solubility (mole fraction) (in ethyl acetate, 298.3 K): 0.0281
- solubility (mole fraction) (in ethyl acetate, 303.15 K): 0.0314
- solubility (mole fraction) (in ethyl acetate, 308.1 K): 0.0359
- solubility (mole fraction) (in ethyl acetate, 312.95 K): 0.0412
- solubility (mole fraction) (in ethyl acetate, 317.75 K): 0.0456
- solubility (mole fraction) (in isopropanol, 278.45 K): 0.000994
- solubility (mole fraction) (in isopropanol, 283.55 K): 0.00128
- solubility (mole fraction) (in isopropanol, 288.4 K): 0.00168
- solubility (mole fraction) (in isopropanol, 293.25 K): 0.00208
- solubility (mole fraction) (in isopropanol, 298.2 K): 0.00265
- solubility (mole fraction) (in isopropanol, 303.05 K): 0.00343
- solubility (mole fraction) (in isopropanol, 307.95 K): 0.00445
- solubility (mole fraction) (in isopropanol, 312.9 K): 0.00572
- solubility (mole fraction) (in isopropanol, 317.55 K): 0.00731
- solubility (mole fraction) (in methanol, 278.85 K): 0.000202
- solubility (mole fraction) (in methanol, 283.65 K): 0.000267
- solubility (mole fraction) (in methanol, 288.55 K): 0.000356
- solubility (mole fraction) (in methanol, 293.45 K): 0.00041
- solubility (mole fraction) (in methanol, 298.3 K): 0.000612
- solubility (mole fraction) (in methanol, 303.15 K): 0.000813
- solubility (mole fraction) (in methanol, 308.1 K): 0.00104
- solubility (mole fraction) (in methanol, 312.95 K): 0.00139
- solubility (mole fraction) (in methanol, 317.75 K): 0.00182
- solubility (mole fraction) (in n-butanol, 278.95 K): 0.00194
- solubility (mole fraction) (in n-butanol, 283.65 K): 0.00237
- solubility (mole fraction) (in n-butanol, 288.55 K): 0.00309
- solubility (mole fraction) (in n-butanol, 293.45 K): 0.00396
- solubility (mole fraction) (in n-butanol, 298.25 K): 0.00469
- solubility (mole fraction) (in n-butanol, 303.05 K): 0.00581
- solubility (mole fraction) (in n-butanol, 308.15 K): 0.00732
- solubility (mole fraction) (in n-butanol, 312.95 K): 0.00898
- solubility (mole fraction) (in n-butanol, 317.65 K): 0.011
- solubility (mole fraction) (in n-propanol, 278.4 K): 0.00228
- solubility (mole fraction) (in n-propanol, 283.65 K): 0.0026
- solubility (mole fraction) (in n-propanol, 288.35 K): 0.00326
- solubility (mole fraction) (in n-propanol, 293.25 K): 0.00395
- solubility (mole fraction) (in n-propanol, 298.15 K): 0.00488
- solubility (mole fraction) (in n-propanol, 303.05 K): 0.00606
- solubility (mole fraction) (in n-propanol, 307.95 K): 0.00756
- solubility (mole fraction) (in n-propanol, 312.9 K): 0.00957
- solubility (mole fraction) (in n-propanol, 318.35 K): 0.0121
